Tests used:
Assay type in all cases: functional, cell-based
[1] = biological target: T1, Muscarinic acetylcholine receptor M5 (Homo sapiens, UniProt P08912); assay: Modulatory activity at M5 receptor (unknown origin) expressed in CHO-K1 cells assessed as intracellular calcium flux incubated for 30 mins by Fluo-8 dye based FLIPR analysis
T1 sequence (P08912 whole entry): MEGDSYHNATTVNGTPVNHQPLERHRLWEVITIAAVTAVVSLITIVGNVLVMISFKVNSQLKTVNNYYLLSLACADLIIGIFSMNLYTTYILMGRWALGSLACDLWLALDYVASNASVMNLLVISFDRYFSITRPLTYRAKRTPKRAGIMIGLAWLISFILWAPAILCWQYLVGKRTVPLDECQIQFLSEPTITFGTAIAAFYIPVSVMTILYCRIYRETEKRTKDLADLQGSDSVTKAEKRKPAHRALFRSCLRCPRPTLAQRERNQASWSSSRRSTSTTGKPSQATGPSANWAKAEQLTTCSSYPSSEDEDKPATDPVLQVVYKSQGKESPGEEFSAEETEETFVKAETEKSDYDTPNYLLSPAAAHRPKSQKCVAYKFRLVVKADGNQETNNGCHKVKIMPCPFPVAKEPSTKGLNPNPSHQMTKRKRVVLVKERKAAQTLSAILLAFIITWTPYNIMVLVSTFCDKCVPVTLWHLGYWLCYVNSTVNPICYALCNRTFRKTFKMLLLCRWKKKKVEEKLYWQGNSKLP

[2] = biological target: T2, Muscarinic acetylcholine receptor M2 (Homo sapiens, UniProt P08172); assay: Modulatory activity at M2 receptor (unknown origin) expressed in CHO-K1 cells assessed as cAMP production by TR-FRET analysis
T2 sequence (P08172 whole entry): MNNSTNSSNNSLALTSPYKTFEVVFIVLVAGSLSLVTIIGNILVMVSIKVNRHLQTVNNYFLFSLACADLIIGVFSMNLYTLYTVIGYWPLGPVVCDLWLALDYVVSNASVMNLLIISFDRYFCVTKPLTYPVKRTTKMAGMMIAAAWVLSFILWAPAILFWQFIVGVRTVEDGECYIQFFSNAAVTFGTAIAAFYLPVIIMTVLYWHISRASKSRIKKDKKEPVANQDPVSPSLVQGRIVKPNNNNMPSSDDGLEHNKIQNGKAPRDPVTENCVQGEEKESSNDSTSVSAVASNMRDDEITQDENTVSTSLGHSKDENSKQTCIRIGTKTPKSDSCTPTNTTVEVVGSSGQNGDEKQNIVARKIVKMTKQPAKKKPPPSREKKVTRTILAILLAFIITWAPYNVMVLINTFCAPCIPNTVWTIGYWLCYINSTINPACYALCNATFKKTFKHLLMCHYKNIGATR

[3] = biological target: T3, Muscarinic acetylcholine receptor M1 (Homo sapiens, UniProt P11229); assay: Modulatory activity at M1 receptor (unknown origin) expressed in CHO-K1 cells assessed as intracellular calcium flux incubated for 30 mins by Fluo-8 dye based FLIPR analysis
T3 sequence (P11229 whole entry): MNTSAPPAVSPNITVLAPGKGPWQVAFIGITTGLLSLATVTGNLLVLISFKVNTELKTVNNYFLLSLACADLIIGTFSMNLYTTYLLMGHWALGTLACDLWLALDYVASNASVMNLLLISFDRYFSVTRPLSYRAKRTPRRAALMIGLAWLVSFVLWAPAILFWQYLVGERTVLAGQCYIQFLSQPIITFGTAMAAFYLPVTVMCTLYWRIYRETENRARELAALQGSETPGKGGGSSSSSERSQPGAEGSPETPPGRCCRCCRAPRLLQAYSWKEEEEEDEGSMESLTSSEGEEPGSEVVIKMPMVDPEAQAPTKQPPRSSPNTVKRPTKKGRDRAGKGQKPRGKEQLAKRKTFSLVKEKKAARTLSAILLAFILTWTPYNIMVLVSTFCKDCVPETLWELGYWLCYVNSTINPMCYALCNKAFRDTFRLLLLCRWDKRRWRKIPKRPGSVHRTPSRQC

[4] = biological target: T4, Muscarinic acetylcholine receptor M4 (Homo sapiens, UniProt P08173); assay: Modulatory activity at M4 receptor (unknown origin) expressed in CHO-K1 cells assessed as cAMP production by TR-FRET analysis
T4 sequence (P08173 whole entry): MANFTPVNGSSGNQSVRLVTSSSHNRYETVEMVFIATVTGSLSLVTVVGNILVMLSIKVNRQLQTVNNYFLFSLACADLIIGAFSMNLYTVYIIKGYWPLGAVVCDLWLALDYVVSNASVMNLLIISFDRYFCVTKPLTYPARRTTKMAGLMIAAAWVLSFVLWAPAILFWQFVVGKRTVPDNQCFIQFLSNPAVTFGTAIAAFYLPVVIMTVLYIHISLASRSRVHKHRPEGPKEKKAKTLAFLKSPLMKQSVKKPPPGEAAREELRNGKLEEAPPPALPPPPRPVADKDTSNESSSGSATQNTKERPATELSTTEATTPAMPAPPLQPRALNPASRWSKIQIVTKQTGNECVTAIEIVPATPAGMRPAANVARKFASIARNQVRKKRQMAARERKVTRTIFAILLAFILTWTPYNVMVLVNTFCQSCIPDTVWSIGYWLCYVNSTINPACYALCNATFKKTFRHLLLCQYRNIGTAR

[5] = biological target: Muscarinic acetylcholine receptor M3 (Homo sapiens, UniProt P20309); assay: Modulatory activity at M3 receptor (unknown origin) expressed in CHO-K1 cells assessed as intracellular calcium flux incubated for 30 mins by Fluo-8 dye based FLIPR analysis
Chain of Muscarinic acetylcholine receptor M3 (P20309 whole entry): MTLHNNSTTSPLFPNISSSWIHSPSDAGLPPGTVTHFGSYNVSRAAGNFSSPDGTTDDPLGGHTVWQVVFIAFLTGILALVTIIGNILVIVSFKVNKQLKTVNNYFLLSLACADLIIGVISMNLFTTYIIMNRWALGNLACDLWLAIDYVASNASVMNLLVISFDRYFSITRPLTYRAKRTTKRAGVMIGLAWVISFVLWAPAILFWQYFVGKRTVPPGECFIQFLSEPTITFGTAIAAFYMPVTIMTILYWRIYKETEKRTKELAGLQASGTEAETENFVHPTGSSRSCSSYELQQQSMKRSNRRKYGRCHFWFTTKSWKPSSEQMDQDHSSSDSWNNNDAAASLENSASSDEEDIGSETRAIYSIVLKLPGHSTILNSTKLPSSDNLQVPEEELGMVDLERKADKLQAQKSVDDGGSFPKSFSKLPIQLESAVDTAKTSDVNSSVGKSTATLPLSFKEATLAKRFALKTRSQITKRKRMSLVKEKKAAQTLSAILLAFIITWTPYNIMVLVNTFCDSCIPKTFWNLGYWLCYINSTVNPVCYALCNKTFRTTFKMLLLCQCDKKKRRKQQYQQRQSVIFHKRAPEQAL

| EC50 [1] | EC50 [2] | EC50 [3] | EC50 [4] | EC50 [5] | Structure (SMILES) |
| --- | --- | --- | --- | --- | --- |
| 0.02 µM | > 10 µM | > 10 µM | < 0.02 µM | > 10 µM | CCOC(=O)N1CC2(CC[C@@H](N3CCN(c4cccnc4-c4ccc(F)nc4)CC3)C2)C1 |
| > 10 µM | 0.1 µM | > 10 µM | < 0.02 µM | > 10 µM | CCOC(=O)N1CC2(CC[C@@H](N3CCN(c4cc(F)cnc4-c4cnn(C(C)C)c4)CC3)C2)C1 |
| > 10 µM | < 0.02 µM | > 10 µM | < 0.02 µM | > 10 µM | CCOC(=O)N1CC2(CC[C@@H](N3CCN(c4cc(F)cnc4-c4cnn(C(F)F)c4)CC3)C2)C1 |
| > 10 µM | > 10 µM | < 0.02 µM | < 0.02 µM | > 10 µM | CCOC(=O)N1CC2(CC[C@@H](N3CCN(c4cc(F)cnc4-c4cncc(OC)c4)CC3)C2)C1 |
| 0.02 µM | > 10 µM | < 0.02 µM | < 0.02 µM | > 10 µM | CCOC(=O)N1CC2(CC[C@@H](N3CCN(c4cc(F)cnc4-c4ccc(=O)[nH]c4)CC3)C2)C1 |

Continued, compound first:

| Structure (SMILES) | EC50 [1] | EC50 [2] | EC50 [3] | EC50 [4] | EC50 [5] |
| --- | --- | --- | --- | --- | --- |
| CCOC(=O)N1CC2(CC[C@H](N3CCC(O)(c4cc(F)cnc4-c4cnccn4)CC3)C2)C1 |  | > 10 µM |  | 0.02 µM |  |
| CCOC(=O)N1CC2(CC[C@@H](N3CCC(O)(c4cc(F)cnc4-c4cnccn4)CC3)C2)C1 |  | > 10 µM |  | < 0.02 µM |  |
| CCOC(=O)N1CC2(CC[C@@H](N3CCN(c4cc(F)cnc4-c4cccc(CO)c4)CC3)C2)C1 | > 10 µM |  | > 10 µM | < 0.02 µM | > 10 µM |
| CCOC(=O)N1CC2(CC[C@@H](N3CCN(c4cc(F)cnc4-c4cncs4)CC3)C2)C1 | > 10 µM | > 10 µM | < 0.02 µM | < 0.02 µM | > 10 µM |
| CCOC(=O)N1CC2(CC[C@@H](N3CCN(c4cc(F)cnc4-c4cscn4)CC3)C2)C1 |  | 0.1 µM |  | < 0.02 µM |  |
| CCOC(=O)N1CC2(CC[C@@H](N3CCN(c4cc(F)cnc4-c4ccc(=O)n(C)c4)CC3)C2)C1 | > 10 µM | > 10 µM | > 10 µM | < 0.02 µM | > 10 µM |
